Source: PMC4658208 (Journal of medicinal chemistry, 2015)

How the values were obtained:
[1] = logD7.4
[2] = system: S30 extracts of E. coli, coupled Transcription-Translation (RNA polymerase); details: high-throughput screen hit; cited from earlier work
[3] = equilibrium solubility
[4] = system: H. influenzae acrB; experiment: Antibacterial activity; format: cell-based, Haemophilus influenzae; details: efflux-negative strain
[5] = system: S30 extracts of E. coli, coupled Transcription-Translation (RNA polymerase)
[6] = system: rabbit reticulocytes, eukaryotic TT; experiment: Eukaryotic TT assay using rabbit reticulocytes; format: biochemical; details: read-out: IC50 eukaryotic TT assay, data not shown
[7] = cited from earlier work

3,5-dimethyl-N-(2-(4-(4-methylbenzyl)piperidin-1-yl)-3,4-dioxocyclobut-1-enyl)isoxazole-4-sulfonamide [compound 1]
logD [1]: 0.1 | half maximal inhibitory concentration (IC50), TT assay [2]: sub-micromolar | Solubility [3]: >1000 µM | MIC H. influenzae acrB [4]: 200 µM | IC50 ([5]; read-out: IC50 Eco-TT, E. coli coupled transcription-translation assay): 280 nM | IC50 [6]: > 100000 nM | fu, compound fraction unbound to human plasma protein (human plasma, minimum detection level 1%): <1%

O=c1c(NS(=O)(=O)c2ccccc2)c(N2CCC(Cc3ccccc3)CC2)c1=O [compound 2, N-(2-(4-benzylpiperidin-1-yl)-3,4-dioxocyclobut-1-enyl)benzenesulfonamide]
reduction in activity/potency in the TT assay ([5]; compared to compound 1): 7 fold

Cc1nn(C(F)F)cc1S(=O)(=O)Nc1c(N2CCC(Cc3ccccc3)CC2)c(=O)c1=O [compound 3, N-(2-(4-benzylpiperidin-1-yl)-3,4-dioxocyclobut-1-enyl)-1-(difluoromethyl)-3-methyl-1H-pyrazole-4-sulfonamide]
biochemical activity in TT assay, in words [5]: biochemically active

Cc1noc(C)c1C(=O)Nc1c(N2CCC(Cc3ccccc3)CC2)c(=O)c1=O [compound 4, N-(2-(4-benzylpiperidin-1-yl)-3,4-dioxocyclobut-1-enyl)-3,5-dimethylisoxazole-4-carboxamide]
biochemical activity in TT assay, in words [5]: inactive

Cc1noc(C)c1S(=O)(=O)Nc1c(N2CCC(C)CC2)c(=O)c1=O [compound 5, 3,5-dimethyl-N-(2-(4-methylpiperidin-1-yl)-3,4-dioxocyclobut-1-enyl)isoxazole-4-sulfonamide]
biochemical activity in TT assay, in words [5]: inactive

Cc1noc(C)c1S(=O)(=O)Nc1c(N2CCC(c3ccccc3)CC2)c(=O)c1=O [compound 6, N-(3,4-dioxo-2-(4-phenylpiperidin-1-yl)cyclobut-1-enyl)-3,5-dimethylisoxazole-4-sulfonamide]
biochemical activity in TT assay, in words [5]: much less active

Cc1noc(C)c1S(=O)(=O)Nc1c(N2CCC(NCc3ccc(C(F)(F)F)cc3)CC2)c(=O)c1=O [compound 14, N-(3,4-dioxo-2-(4-(4-(trifluoromethyl)benzylamino)piperidin-1-yl)cyclobut-1-enyl)-3,5-dimethylisoxazole-4-sulfonamide]
improvement of free fraction (fu) (compound 14 versus compound 8): 7 fold | reduction of free fraction (compound 14 versus compound 13): four

Cc1noc(C)c1S(=O)(=O)Nc1c(N2CCC(N(C)CC3CCCCC3)CC2)c(=O)c1=O [compound 17, N-(2-(4-((cyclohexylmethyl)(methyl)amino)piperidin-1-yl)-3,4-dioxocyclobut-1-enyl)-3,5-dimethylisoxazole-4-sulfonamide]
biochemical activity in TT assay, in words [5]: inactive

myxopyronin
plasma protein binding, in words [7]: highly plasma protein bound
